Results as given in PMC3091812 (Neuropeptides, 2011).

Legend:
HEK-293 cells [1] = experiment: Caspase-3 activity assay, protection from 3-nitropropionate; assay type: cell-based, Human; settings: 8 mM 3-NP, 12 hours, over control
HEK-293 cells [2] = experiment: Caspase-3 activity assay, protection from staurosporine; assay type: cell-based, Human; settings: 1 μM staurosporine, 12 hours, vs citrate buffer control

Compound | increase of caspase-3 activity by toxin (HEK-293 cells [1]) | increase of caspase-3 activity by toxin (HEK-293 cells [2])
O=C(O)CC[N+](=O)[O-] [3-NP, 3-nitropropionate] | approximately 100% | –
CN[C@@H]1C[C@H]2O[C@@](C)([C@@H]1OC)n1c3ccccc3c3c4c(c5c6ccccc6n2c5c31)C(=O)NC4 [staurosporine] | – | approximately 80%
